# “And” between values parts separate entries of the source, which are not always exact repeats. Identical values can stand only once. Like-named read-outs stand apart in the source and are kept apart here.
# Columns and labels:
# CYP2C9 [1] = molecular target: T1, CYP2C9 (Homo sapiens, UniProt P11712); assay: in vitro; conditions: both, microsomes
# CYP2A6 [2] = molecular target: T2, CYP2A6 (Homo sapiens, UniProt P11509); assay: in vitro; conditions: both, microsomes
# T2 sequence (P11509 1-494): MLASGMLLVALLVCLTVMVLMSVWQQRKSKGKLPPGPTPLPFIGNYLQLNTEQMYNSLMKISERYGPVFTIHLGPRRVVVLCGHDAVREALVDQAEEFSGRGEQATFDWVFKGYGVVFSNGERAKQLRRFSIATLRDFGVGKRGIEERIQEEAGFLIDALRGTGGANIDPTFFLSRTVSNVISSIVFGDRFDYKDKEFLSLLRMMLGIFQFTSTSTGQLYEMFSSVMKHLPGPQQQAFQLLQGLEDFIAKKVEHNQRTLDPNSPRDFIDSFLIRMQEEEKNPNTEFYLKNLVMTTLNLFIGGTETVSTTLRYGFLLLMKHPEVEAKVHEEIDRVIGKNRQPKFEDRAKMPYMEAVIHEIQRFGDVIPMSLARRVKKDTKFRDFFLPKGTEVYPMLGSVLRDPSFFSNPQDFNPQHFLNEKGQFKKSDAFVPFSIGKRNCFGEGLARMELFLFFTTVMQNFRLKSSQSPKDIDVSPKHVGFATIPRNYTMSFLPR
# CYP2E1 [3] = molecular target: T3, CYP2E1 (Homo sapiens, UniProt P05181); assay: Cytochrome P450 isoform inhibition in human hepatic microsomes, chlorzoxazone (Example 18); conditions: 0.33 to 33.3 μM
# T3 sequence (P05181 whole entry, canonical isoform): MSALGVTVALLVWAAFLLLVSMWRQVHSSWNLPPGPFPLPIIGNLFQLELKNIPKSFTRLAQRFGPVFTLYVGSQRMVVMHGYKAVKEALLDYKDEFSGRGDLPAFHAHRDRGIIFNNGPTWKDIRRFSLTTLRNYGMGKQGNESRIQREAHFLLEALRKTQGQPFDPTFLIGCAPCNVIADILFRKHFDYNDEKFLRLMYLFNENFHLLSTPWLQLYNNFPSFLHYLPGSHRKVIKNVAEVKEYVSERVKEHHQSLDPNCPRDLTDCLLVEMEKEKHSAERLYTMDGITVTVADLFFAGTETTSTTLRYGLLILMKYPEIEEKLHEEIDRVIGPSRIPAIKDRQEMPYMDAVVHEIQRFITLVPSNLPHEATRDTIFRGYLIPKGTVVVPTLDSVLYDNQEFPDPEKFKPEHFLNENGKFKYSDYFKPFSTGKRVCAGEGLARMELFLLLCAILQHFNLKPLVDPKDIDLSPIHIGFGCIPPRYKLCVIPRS
# CYP2C9 [4] = molecular target: T1, CYP2C9; conditions: for Tolbutamide 4-OH TB Production: both, human, 40 min
# CYP1A2 = molecular target: T4, CYP1A2 (Homo sapiens, UniProt P05177); assay: in vitro; conditions: both, microsomes
# T4 sequence (P05177 1-516): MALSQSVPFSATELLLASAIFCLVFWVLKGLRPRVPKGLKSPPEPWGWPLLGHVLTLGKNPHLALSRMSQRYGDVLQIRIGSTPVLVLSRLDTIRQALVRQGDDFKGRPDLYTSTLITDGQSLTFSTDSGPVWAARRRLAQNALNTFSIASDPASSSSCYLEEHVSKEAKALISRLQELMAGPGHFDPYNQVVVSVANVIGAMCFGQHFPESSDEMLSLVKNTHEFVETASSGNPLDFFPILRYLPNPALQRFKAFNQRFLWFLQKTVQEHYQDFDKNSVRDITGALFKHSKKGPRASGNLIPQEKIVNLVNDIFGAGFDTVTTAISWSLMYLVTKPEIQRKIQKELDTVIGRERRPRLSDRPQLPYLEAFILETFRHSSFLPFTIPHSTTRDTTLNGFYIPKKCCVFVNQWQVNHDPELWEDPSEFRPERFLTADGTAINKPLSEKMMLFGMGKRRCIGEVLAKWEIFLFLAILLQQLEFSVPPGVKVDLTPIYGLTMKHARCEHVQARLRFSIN
# CYP2D6 [5] = molecular target: T5, CYP2D6 (Homo sapiens, UniProt P10635); assay: in vitro; conditions: both, microsomes
# T5 sequence (P10635 whole entry): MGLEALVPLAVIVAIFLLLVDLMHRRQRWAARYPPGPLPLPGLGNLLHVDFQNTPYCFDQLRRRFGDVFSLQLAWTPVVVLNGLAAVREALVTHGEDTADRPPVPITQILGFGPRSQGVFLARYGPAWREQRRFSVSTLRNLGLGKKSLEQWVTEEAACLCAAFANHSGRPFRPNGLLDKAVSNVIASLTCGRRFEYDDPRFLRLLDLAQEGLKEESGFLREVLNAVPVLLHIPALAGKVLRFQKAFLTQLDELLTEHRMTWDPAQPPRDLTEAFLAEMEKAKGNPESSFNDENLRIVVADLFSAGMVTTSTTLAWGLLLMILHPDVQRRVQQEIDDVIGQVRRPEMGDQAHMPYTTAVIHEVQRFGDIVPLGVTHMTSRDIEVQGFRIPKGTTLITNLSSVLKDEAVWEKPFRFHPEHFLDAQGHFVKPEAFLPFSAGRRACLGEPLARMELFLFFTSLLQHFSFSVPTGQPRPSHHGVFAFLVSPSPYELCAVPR
# [6] = Pharmacokinetic study in SD rats, chiral HPLC of plasma halofenic acids (Example 14); assay type: in vivo; conditions: single oral dose of (−) halofenate 50 mg/kg
# Experimental: Male 225-250 g SD rats were purchased from Charles River. […] A catheter was placed in the left carotid artery under sodium pentobarbital (50 mg/kg i.p.) and animals were allowed to recover for 2 days before treatment. […] The gavage volume was 5 ml/kg. Blood samples were collected at 1, 2, 4, 6, 8, 12, 24, 48, 72, 96 and 120 hours post dose. The plasma samples were analyzed for each enantiomeric acid ((−) halofenic acid and (+) halofenic acid) by a chiral specific HPLC assay, since the esters are prodrugs, which are designed to convert to their respective enantiomeric acids in vivo.
# CYP3A4 = CYP3A4 (Homo sapiens, UniProt P08684); conditions: both, 10 min
# Chain of CYP3A4 (P08684 whole entry): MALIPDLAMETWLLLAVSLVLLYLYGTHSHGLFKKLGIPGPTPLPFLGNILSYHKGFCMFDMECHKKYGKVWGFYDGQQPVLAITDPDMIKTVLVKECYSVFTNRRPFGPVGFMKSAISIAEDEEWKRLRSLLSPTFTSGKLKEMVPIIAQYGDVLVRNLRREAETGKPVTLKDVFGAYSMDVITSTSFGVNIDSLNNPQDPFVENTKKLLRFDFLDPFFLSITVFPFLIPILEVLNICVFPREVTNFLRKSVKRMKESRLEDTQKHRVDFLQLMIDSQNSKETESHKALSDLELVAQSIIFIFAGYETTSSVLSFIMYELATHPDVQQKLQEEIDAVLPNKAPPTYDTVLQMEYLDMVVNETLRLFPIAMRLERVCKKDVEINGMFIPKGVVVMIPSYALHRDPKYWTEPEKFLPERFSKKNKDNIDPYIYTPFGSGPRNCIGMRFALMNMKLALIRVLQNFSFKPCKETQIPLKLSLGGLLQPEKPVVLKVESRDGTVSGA
# CYP2D6 [7] = molecular target: T5, CYP2D6; conditions: both, 15 min
# CYP2A6 [8] = molecular target: T2, CYP2A6; conditions: both, 20 min
# CYP2E1 [9] = molecular target: T3, CYP2E1; conditions: both, 20 min
# CYP2E1 [10] = molecular target: T3, CYP2E1; assay: in vitro; conditions: both, microsomes
# T1 sequence (P11712 whole entry): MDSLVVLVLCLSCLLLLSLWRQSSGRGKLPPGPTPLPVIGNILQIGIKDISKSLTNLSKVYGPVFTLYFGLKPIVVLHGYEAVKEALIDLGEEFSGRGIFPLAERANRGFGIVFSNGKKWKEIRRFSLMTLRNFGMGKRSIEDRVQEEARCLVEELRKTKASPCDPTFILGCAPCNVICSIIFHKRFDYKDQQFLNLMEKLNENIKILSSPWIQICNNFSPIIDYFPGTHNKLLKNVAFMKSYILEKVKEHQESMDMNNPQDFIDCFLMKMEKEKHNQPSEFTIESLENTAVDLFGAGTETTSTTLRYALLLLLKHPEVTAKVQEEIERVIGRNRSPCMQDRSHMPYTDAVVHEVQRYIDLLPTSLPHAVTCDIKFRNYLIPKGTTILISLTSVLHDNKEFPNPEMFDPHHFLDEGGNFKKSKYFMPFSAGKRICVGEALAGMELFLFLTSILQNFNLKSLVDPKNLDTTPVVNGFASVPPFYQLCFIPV
smiles,measurement,setting,value
"O=C(O)C(Oc1cccc(C(F)(F)F)c1)c1ccc(Cl)cc1 (single isomer, unassigned; (-)) [(−) halofenic acid, (−) 4-chlorophenyl-(3-trifluoromethylphenoxy)-acetic acid]","inhibition at 40 min, 0.33 μM",CYP2C9 [1],5%
same,"inhibition at 40 min, 1 μM",CYP2C9 [1],10%
same,"inhibition at 40 min, 3.3 μM",CYP2C9 [1],21%
same,"inhibition at 40 min, 10 μM",CYP2C9 [1],47%
same,"inhibition at 40 min, 33.3 μM",CYP2C9 [1],71%
same,"inhibition at 20 min, 0.33 μM",CYP2A6 [2],-4%
same,"inhibition at 20 min, 1 μM",CYP2A6 [2],-2%
same,"inhibition at 20 min, 3.3 μM",CYP2A6 [2],0%
same,"inhibition at 20 min, 10 μM",CYP2A6 [2],-3%
same,"inhibition at 20 min, 33.3 μM",CYP2A6 [2],-1%
same,"inhibition of CYP2E1, in words",CYP2E1 [3],not observed
same,IC50 for CYP2C9 in Example 18 relative to that reported in Example 7,CYP2C9 [4],approximately three times
same,Tolbutamide 4-OH TB Production,CYP2C9 [4]; 0.33 μM,41.0 ± 0.9 pmol/mg protein/min
same,Tolbutamide 4-OH TB Production,CYP2C9 [4]; 1 μM,38.6 ± 0.5 pmol/mg protein/min
same,Tolbutamide 4-OH TB Production,CYP2C9 [4]; 3.3 μM,34.2 ± 0.2 pmol/mg protein/min
same,Tolbutamide 4-OH TB Production,CYP2C9 [4]; 10 μM,22.7 ± 0.6 pmol/mg protein/min
same,Tolbutamide 4-OH TB Production,CYP2C9 [4]; 33.3 μM,12.7 ± 0.2 pmol/mg protein/min
same,"inhibition at 30 min, 0.33 μM",CYP1A2,1%
same,"inhibition at 30 min, 1 μM",CYP1A2,0%
same,"inhibition at 30 min, 3.3 μM",CYP1A2,-1%
same,"inhibition at 30 min, 10 μM",CYP1A2,-1%
same,"inhibition at 30 min, 33.3 μM",CYP1A2,-1%
same,"inhibition at 15 min, 0.33 μM",CYP2D6 [5],3%
same,"inhibition at 15 min, 1 μM",CYP2D6 [5],1%
same,"inhibition at 15 min, 3.3 µM",CYP2D6 [5],6%
same,"inhibition at 15 min, 10 µM",CYP2D6 [5],4%
same,"inhibition at 15 min, 33.3 µM",CYP2D6 [5],5%
same,concentration at 96 h,"[6]; male, SD, rat, plasma, oral, 50 mg/kg, individual rats 8, 11",31.1 µg/mL
same,concentration at 120 h,"[6]; male, SD, rat, plasma, oral, 50 mg/kg, rat 8",20.3 µg/mL
same,plasma concentration at 0 hour,"[6]; individual rats 8, 9, 11",BQL (BQL = Below Quantifiable Limit < 1.00 μg/mL)
same,plasma concentration at 1 hour,"[6]; individual rats 8, 9, 11",81.2 µg/mL and 23.7 µg/mL and 61.0 µg/mL
same,plasma concentration at 2 hours,"[6]; individual rats 8, 9, 11",100.1 µg/mL and 30.4 µg/mL and 87.8 µg/mL
same,plasma concentration at 4 hours,"[6]; individual rats 8, 9, 11",122.3 µg/mL and 36.9 µg/mL and 94.5 µg/mL
same,plasma concentration at 6 hours,"[6]; individual rats 8, 9, 11",128.3 µg/mL and 56.5 µg/mL and 116.3 µg/mL
same,plasma concentration at 8 hours,"[6]; individual rats 8, 9, 11",128.2 µg/mL and 79.0 µg/mL and 127.8 µg/mL
same,plasma concentration at 12 hours,"[6]; individual rats 8, 9, 11",135.3 µg/mL and 80.6 µg/mL and 104.8 µg/mL
same,plasma concentration at 24 hours,"[6]; individual rats 8, 9, 11",82.5 µg/mL and 73.1 µg/mL and 66.5 µg/mL
same,plasma concentration at 48 hours,"[6]; individual rats 8, 9, 11",56.2 µg/mL and 44.5 µg/mL and 47.1 µg/mL
same,plasma concentration at 72 hours,"[6]; individual rats 8, 9, 11",39.7 µg/mL and 37.4 µg/mL and 30.8 µg/mL
same,plasma concentration at 96 hours,"[6]; individual rats 8, 11",24.6 µg/mL
same,Testosterone 6β-OHT Production,CYP3A4; 0.33 µM,1816 ± 12 pmol/mg protein/min
same,Testosterone 6β-OHT Production,CYP3A4; 1 µM,1851 ± 14 pmol/mg protein/min
same,Testosterone 6β-OHT Production,CYP3A4; 3.3 µM,1810 ± 3 pmol/mg protein/min
same,Testosterone 6β-OHT Production,CYP3A4; 10 µM,1819 ± 4 pmol/mg protein/min
same,Testosterone 6β-OHT Production,CYP3A4; 33.3 µM,1816 ± 6 pmol/mg protein/min
same,Dextromethorphan DEX Production,CYP2D6 [7]; 0.33 μM,107 ± 4 pmol/mg protein/min
same,Dextromethorphan DEX Production,CYP2D6 [7]; 1 μM,110 ± 2 pmol/mg protein/min
same,Dextromethorphan DEX Production,CYP2D6 [7]; 3.3 µM,104 ± 3 pmol/mg protein/min
same,Dextromethorphan DEX Production,CYP2D6 [7]; 10 µM,107 ± 1 pmol/mg protein/min
same,Dextromethorphan DEX Production,CYP2D6 [7]; 33.3 µM,106 ± 4 pmol/mg protein/min
same,Coumarin 7-HC Production,CYP2A6 [8]; 0.33 μM,33.3 ± 0.7 pmol/mg protein/min
same,Coumarin 7-HC Production,CYP2A6 [8]; 1 μM,32.6 ± 0.7 pmol/mg protein/min
same,Coumarin 7-HC Production,CYP2A6 [8]; 3.3 μM,32.1 ± 0.7 pmol/mg protein/min
same,Coumarin 7-HC Production,CYP2A6 [8]; 10 μM,33.1 ± 0.7 pmol/mg protein/min
same,Coumarin 7-HC Production,CYP2A6 [8]; 33.3 μM,32.3 ± 0.7 pmol/mg protein/min
same,Chlorzoxazone 6-OH CZX Production,CYP2E1 [9]; 0.33 μM,238 ± 4 pmol/mg protein/min
same,Chlorzoxazone 6-OH CZX Production,CYP2E1 [9]; 1 μM,244 ± 1 pmol/mg protein/min
same,Chlorzoxazone 6-OH CZX Production,CYP2E1 [9]; 3.3 μM,239 ± 4 pmol/mg protein/min
same,Chlorzoxazone 6-OH CZX Production,CYP2E1 [9]; 10 μM,244 ± 6 pmol/mg protein/min
same,Chlorzoxazone 6-OH CZX Production,CYP2E1 [9]; 33.3 μM,239 ± 4 pmol/mg protein/min
same,"inhibition at 20 min, 0.33 μM",CYP2E1 [10],3%
same,"inhibition at 20 min, 1 μM",CYP2E1 [10],1%
same,"inhibition at 20 min, 3.3 μM",CYP2E1 [10],3%
same,"inhibition at 20 min, 10 μM",CYP2E1 [10],1%
same,"inhibition at 20 min, 33.3 μM",CYP2E1 [10],3%

# From patent US20040039053A1, “Use of(-) (3-halomethylphenoxy) (4-halophenyl) acetic acid derivatives for treatment of insulin resistance, type 2 diabetes, hyperlipidemia and hyperuricemia” (priority 2000, published 2004)
